Like-named read-outs stand apart in the source and are kept apart here.
Assay: Pharmacokinetics in female BALB/c nude mice bearing A375 xenografts, 1 day dosing (PK and PD study): plasma, tumor and brain concentrations, AUC
Format: in vivo
Conditions: mouse, po
Description: The concentrations of Dabrafenib, Compound 26 and Compound 141 in the treatment of female BALB/c nude mice bearing A375 xenografts are shown in Table 62-Table 72 and FIG. 52-FIG. 73.

[1] = plasma, 1.5 mg/kg, Compound 141, 1.5 mg/kg p.o. BID × 1 day, post 1st dose, read-out: Mean Concentration in Plasma ± SEM
[2] = plasma, 1.5 mg/kg, Compound 141, 1.5 mg/kg p.o. BID × 1 day, post 2nd dose, read-out: Mean Concentration in Plasma ± SEM
[3] = plasma, 3 mg/kg, 3 mg/kg p.o. QD × 1 day, read-out: Mean Concentration in Plasma ± SEM
[4] = plasma, 5 mg/kg, 5 mg/kg p.o. BID × 1 day, post 1st dose, read-out: Mean Concentration in Plasma ± SEM
[5] = plasma, 5 mg/kg, 5 mg/kg p.o. BID × 1 day, post 2nd dose, read-out: Mean Concentration in Plasma ± SEM
[6] = tumor, 0.75 mg/kg, 0.75 mg/kg p.o. BID × 1 day, post 2nd dose, read-out: Mean Concentration in Tumor ± SEM
[7] = tumor, 1 mg/kg, 1 mg/kg p.o. TID × 1 day, post 3rd dose, read-out: Mean Concentration in Tumor ± SEM
[8] = tumor, 1.5 mg/kg, Compound 141, 1.5 mg/kg p.o. BID × 1 day, post 2nd dose, read-out: Mean Concentration in Tumor ± SEM
[9] = tumor, 3 mg/kg, 3 mg/kg p.o. QD × 1 day, read-out: Mean Concentration in Tumor ± SEM
[10] = tumor, 5 mg/kg, 5 mg/kg p.o. BID × 1 day, post 2nd dose, read-out: Mean Concentration in Tumor ± SEM

CCN(C)S(=O)(=O)Nc1ccc(F)c(Oc2ccc3ncn(C4CC5(CCN(C6CC7(C6)CN(c6cc8c(cc6F)c(N6CCC(=O)NC6=O)nn8C)C7)CC5)C4)c(=O)c3c2)c1C#N (stereo not shown) [Compound 141, 6-[2-cyano-3-[[ethyl(methyl)sulfamoyl]amino]-6-fluoro-phenoxy]-3-[7-[2-[3-(2,4-dioxohexahydropyrimidin-1-yl)-5-fluoro-1-methyl-indazol-6-yl]-2-azaspiro[3.3]heptan-6-yl]-7-azaspiro[3.5]nonan-2-yl]-4-oxo-quinazoline]
concentration at 0.25 h [1]: 0.71 ± 0.0619 µg/mL
concentration at 0.5 h [1]: 1.15 ± 0.094 µg/mL
concentration at 1 h [1]: 2.03 ± 0.255 µg/mL
concentration at 2 h [1]: 1.61 ± 0.128 µg/mL
concentration at 4 h [1]: 0.796 ± 0.312 µg/mL
concentration at 8 h [1]: 0.256 ± 0.0193 µg/mL
concentration at 12 h [1]: 0.0434 ± 0.00465 µg/mL
concentration at 0.25 h [2]: 0.359 ± 0.0307 µg/mL
concentration at 0.5 h [2]: 0.83 ± 0.129 µg/mL
concentration at 1 h [2]: 1.56 ± 0.0991 µg/mL
concentration at 2 h [2]: 1.55 ± 0.181 µg/mL
concentration at 4 h [2]: 0.831 ± 0.0966 µg/mL
concentration at 10 h [2]: 0.115 ± 0.0343 µg/mL
concentration at 24 h [2]: 0.0012 ± 0.000262 µg/mL
concentration at 0.25 h [3]: 1.07 ± 0.209 µg/mL
concentration at 0.5 h [3]: 2.02 ± 0.16 µg/mL
concentration at 1 h [3]: 2.83 ± 0.372 µg/mL
concentration at 2 h [3]: 3.66 ± 0.315 µg/mL
concentration at 4 h [3]: 1.44 ± 0.285 µg/mL
concentration at 8 h [3]: 0.661 ± 0.279 µg/mL
concentration at 10 h [3]: 0.307 ± 0.0604 µg/mL
concentration at 24 h [3]: 0.00386 ± 0.0025 µg/mL
concentration at 36 h [3]: 0.00105 µg/mL
concentration at 0.25 h [4]: 1.81 ± 0.126 µg/mL
concentration at 0.5 h [4]: 3.46 ± 0.404 µg/mL
concentration at 1 h [4]: 4.86 ± 0.155 µg/mL
concentration at 2 h [4]: 3.65 ± 0.76 µg/mL
concentration at 4 h [4]: 1.22 ± 0.0555 µg/mL
concentration at 8 h [4]: 0.648 ± 0.142 µg/mL
concentration at 12 h [4]: 0.0436 ± 0.0027 µg/mL
concentration at 0.25 h [5]: 1.68 ± 0.0896 µg/mL
concentration at 0.5 h [5]: 3.16 ± 0.596 µg/mL
concentration at 1 h [5]: 4.85 ± 0.488 µg/mL
concentration at 2 h [5]: 3.62 ± 0.428 µg/mL
concentration at 4 h [5]: 1.75 ± 0.468 µg/mL
concentration at 10 h [5]: 0.484 ± 0.109 µg/mL
concentration at 24 h [5]: 0.00428 ± 0.00189 µg/mL
concentration at 36 h [5]: 0.00206 ± 0.00117 µg/mL
concentration at 48 h [5]: 0.000635 µg/mL
concentration at 1 h [6]: 117 ± 11 ng/g
concentration at 4 h [6]: 143 ± 37.7 ng/g
concentration at 10 h [6]: 93 ± 22.1 ng/g
concentration at 24 h [6]: 3.27 ng/g
concentration at 1 h [7]: 152 ± 35.7 ng/g
concentration at 4 h [7]: 254 ± 43.2 ng/g
concentration at 10 h [7]: 205 ± 40.9 ng/g
concentration at 24 h [7]: 16.7 ± 12.2 ng/g
concentration at 48 h [7]: 8.07 ng/g
concentration at 0.25 h [8]: 58.9 ± 26.7 ng/g
concentration at 0.5 h [8]: 61.5 ± 14 ng/g
concentration at 1 h [8]: 239 ± 17.6 ng/g
concentration at 2 h [8]: 382 ± 43.9 ng/g
concentration at 4 h [8]: 214 ± 27.1 ng/g
concentration at 10 h [8]: 54.7 ± 17.9 ng/g
concentration at 24 h [8]: 22.5 ± 18.5 ng/g
concentration at 36 h [8]: 38.5 ng/g
concentration at 48 h [8]: 11.1 ng/g
concentration at 1 h [9]: 254 ± 26.3 ng/g
concentration at 4 h [9]: 439 ± 90.9 ng/g
concentration at 10 h [9]: 130 ± 19 ng/g
concentration at 24 h [9]: 12.9 ± 7.75 ng/g
concentration at 48 h [9]: 7.64 ng/g
concentration at 1 h [10]: 626 ± 78.6 ng/g
concentration at 4 h [10]: 636 ± 83.4 ng/g
concentration at 10 h [10]: 205 ± 47.2 ng/g
concentration at 24 h [10]: 6.26 ± 1.12 ng/g
concentration at 48 h [10]: 10.6 ng/g
